US6387913B1, “Method of treating airway diseases with combined administration of A2B and A3 adenosine receptor antagonists” (priority 2000, dated 2002)

Columns and labels:
Assay type in all cases: in vivo
A3 adenosine receptor = molecular target: T1, A3 adenosine receptor (Mus musculus, UniProt Q61618); test: Effect of MRS1220 on dose-responsiveness to IB-CL-MECA (bronchospasm) in a mouse model of asthma; details: MRS1220 10^-6 M; control and sensitized mice
T1 construct: from tissue; host or cells: live mouse (airways/lung), control and sensitized animals
T1 sequence (Q61618 1-319): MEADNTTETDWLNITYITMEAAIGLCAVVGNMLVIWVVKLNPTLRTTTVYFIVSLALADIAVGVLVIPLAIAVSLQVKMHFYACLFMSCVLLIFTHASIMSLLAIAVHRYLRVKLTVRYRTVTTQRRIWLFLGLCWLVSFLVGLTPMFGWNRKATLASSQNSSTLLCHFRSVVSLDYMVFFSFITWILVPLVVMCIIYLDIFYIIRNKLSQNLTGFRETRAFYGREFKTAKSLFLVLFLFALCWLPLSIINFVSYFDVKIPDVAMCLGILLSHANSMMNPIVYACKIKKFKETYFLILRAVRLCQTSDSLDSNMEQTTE
Description: Con=solid line, Sen=dotted line, Con+MRS=broken line, and Sen+MRS=dashed line.
Therefore, the combination of A3 and A2B antagonists appear better at blocking the adenosine-induced bronchospasm in a mouse model of asthma.

A2A adenosine receptor = molecular target: T2, A2A adenosine receptor (Mus musculus, UniProt Q60613); test: Effect of A2A antagonist on dose-responsiveness to CGS-21680 (Penh) in a mouse model of asthma; details: DMPX 10^-4 M nebulized 3 minutes, agonist dose response 15 minutes later; control and sensitized mice
T2 construct: from tissue; host or cells: live mouse (airways/lung), control and sensitized animals
Protocol: FIG. 2 illustrates the effect of DMPX (10^−4 M) on dose-responsiveness to […] (ug/ml). Con=solid line, Sen=dashed line, Con+DMPX=broken line, and Sen+DMPX=dotted line.
FIG. 2 illustrates the effect of DMPX (10^−4 M) on dose-responsiveness to […]. The animals were nebulized with DMPX (10^−4 M) for 3 minutes and 15 minutes later the dose response to CGS-21680 was performed. n=8 for each group. CGS-21680 is an A2A adenosine receptor agonist; DMPX is an A2A adenosine receptor antagonist.

A1 adenosine receptor = molecular target: T3, A1 adenosine receptor (Mus musculus, UniProt Q60612); test: Effect of A1 antagonist on dose-responsiveness to CPA (Penh) in a mouse model of asthma; details: DPCPX 10^-4 M nebulized 3 minutes, CPA dose response 15 minutes later; control and sensitized mice
T3 construct: from tissue; host or cells: live mouse (airways/lung), control and sensitized animals
T3 sequence (Q60612 1-326): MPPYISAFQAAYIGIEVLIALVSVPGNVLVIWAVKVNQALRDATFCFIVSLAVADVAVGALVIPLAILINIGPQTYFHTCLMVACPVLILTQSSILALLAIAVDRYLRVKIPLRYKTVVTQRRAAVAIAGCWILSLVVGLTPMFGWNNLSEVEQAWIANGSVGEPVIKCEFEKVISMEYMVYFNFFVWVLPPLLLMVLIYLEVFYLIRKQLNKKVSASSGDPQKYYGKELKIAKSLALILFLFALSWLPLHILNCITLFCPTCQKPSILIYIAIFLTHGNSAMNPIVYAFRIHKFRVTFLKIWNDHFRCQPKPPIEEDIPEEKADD
Protocol: FIG. 1 illustrates the effect of DPCPX (10^−4 M) on dose-responsiveness to CPA (micrograms per milliliter—ug/ml) in a mouse model of asthma. Control (Con)=dotted line, sensitized (Sen)=broken line, Con+DPCPX=solid line, and Sen+DPCPX=dashed line. Penh=percentage of saline in all Figures.
FIG. 1 illustrates the effect of DPCPX (10^−4 M) on dose-responsiveness to CPA in a mouse model of asthma. The animals were nebulized with DPCPX […] for 3 minutes and 15 minutes later the dose response to CPA was performed. n=8 for each group. CPA is an A1 adenosine receptor agonist; DPCPX is an A1 adenosine receptor antagonist.

A2B adenosine receptor = molecular target: T4, A2B adenosine receptor (Mus musculus, UniProt Q60614); test: Effect of enprofylline on dose-responsiveness to NECA (Penh) in a mouse model of asthma; details: enprofylline 12 mg/ml nebulized, NECA dose-response 15 minutes later; control and sensitized mice
T4 construct: from tissue; host or cells: live mouse (airways/lung), control and sensitized animals
T4 sequence (Q60614 1-332): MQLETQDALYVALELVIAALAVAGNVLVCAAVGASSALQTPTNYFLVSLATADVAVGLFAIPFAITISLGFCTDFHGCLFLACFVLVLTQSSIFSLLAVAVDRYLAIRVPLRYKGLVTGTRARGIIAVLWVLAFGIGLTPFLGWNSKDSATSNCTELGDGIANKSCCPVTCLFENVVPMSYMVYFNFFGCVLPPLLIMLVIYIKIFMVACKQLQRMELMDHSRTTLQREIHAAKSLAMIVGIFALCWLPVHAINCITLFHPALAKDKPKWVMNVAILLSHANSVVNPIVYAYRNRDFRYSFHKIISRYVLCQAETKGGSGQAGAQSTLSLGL
Protocol: FIG. 3 illustrates the effect of enprofylline (enp; 12 mg/ml) on dose-responsiveness to 5′-(N-ethyl)carboxamidoadenosine (NECA, in ug/ml). Con=dotted line, Sen=dashed line, Con+enp=solid line, and Sen+enp=broken line.
FIG. 3 illustrates the effect of enprofylline (12 mg/ml) on dose-responsiveness to NECA. The animals were nebulized with enprofylline (12 mg/ml) for 1 minutes and 15 minutes later the dose-response to […] was performed. * p<0.05 compared to Sen+Enp group. # p<0.05 compared to control group. n=10 for each group. NECA is a non-selective adenosine receptor agonist; enprofylline is an A2B adenosine receptor antagonist.

T2 sequence (Q60613 whole entry): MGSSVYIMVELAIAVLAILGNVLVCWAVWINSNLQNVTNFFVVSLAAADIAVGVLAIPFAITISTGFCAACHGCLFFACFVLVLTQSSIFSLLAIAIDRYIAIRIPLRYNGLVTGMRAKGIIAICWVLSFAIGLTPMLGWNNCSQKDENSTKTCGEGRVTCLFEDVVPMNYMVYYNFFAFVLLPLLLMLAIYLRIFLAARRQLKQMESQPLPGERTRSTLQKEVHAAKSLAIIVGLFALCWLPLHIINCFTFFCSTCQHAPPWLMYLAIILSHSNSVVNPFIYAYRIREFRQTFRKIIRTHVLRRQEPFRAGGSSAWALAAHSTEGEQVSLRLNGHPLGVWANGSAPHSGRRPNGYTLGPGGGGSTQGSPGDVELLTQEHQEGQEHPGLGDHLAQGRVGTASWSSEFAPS

## O=C(Cc1ccccc1)Nc1nc2ccc(Cl)cc2c2nc(-c3ccco3)nn12 [MRS1220]
A3 adenosine receptor
  block of the bronchospasm produced by IB-CL-MECA: did not completely block the bronchospasm

## C#CCn1c(=O)c2c(ncn2C)n(C)c1=O [DMPX]
A2A adenosine receptor
  effect on dose-responsiveness to CGS-21680 (Penh): no A2A adenosine receptor involvement

## CCCn1c(=O)c2[nH]c(C3CCCC3)nc2n(CCC)c1=O [DPCPX]
A1 adenosine receptor
  effect on dose-responsiveness to CPA (Penh): no A1 adenosine receptor involvement

## CCCn1c(=O)[nH]c(=O)c2[nH]cnc21 [enprofylline]
A2B adenosine receptor
  block of the response to NECA (Penh): did not totally block the response
